Results taken from patent publication US9738591B2, “Antimicrobial compounds” (priority 2009, dated 2017).

Columns and labels:
L929 cells = assay: Cytotoxicity, neutral red assay; assay type: cell-based; details: for ratio of the well's OD compared to the OD of the negative control, Average (SD) (n = 2): 24 h, ratios ≦0.5 indicate a cytostatic effect
Procedure: L929 cells grown to approximately 80% confluency in HGM-M were washed with Hanks, trypsonised to detach the cells from the flask, then diluted to 10^5 cells/ml in HGM-M and 200 μl used to inoculate the wells of a 96-well microtitre tray. After incubation for 24 h at 37° C., adherent cells were washed with Hanks and then 100 μl HGM-M was added to the wells. Fresh TSB007 master stock solution (10 mg/ml) was serially 10-fold diluted in HGM-M to make solutions of 1000, 100, 10 and 1 μg/ml of TSB007. To the wells of the microtitre tray, 100 μl of these TSB007 solutions were also added, giving final concentrations of 500, 50, 5 and 0.5 μg/ml of TSB007. The same dilutions of DMSO were prepared and tested to check that cytotoxic activity was not due to the DMSO. A negative control was prepared containing only HGM-M, and a positive control was prepared by adding 100 μl of carboplatin (10 mg/ml; Mayne Pharma Pty Ltd, Australia) to wells containing 100 μl HGM-M. Controls and dilutions of TSB007 and DMSO were prepared in duplicate.
After 24 h shaking at 37° C., cytotoxicity was quantified using the neutral red assay. The cells were washed with Hanks then 200 μl HGM-M and 20 μl Neutral Red (3.3 g/L; Sigma-Aldrich) were added to each well. After 2 h shaking at 37° C., cells were washed twice with PBS then 200 μl of 1% acetic acid in 50% EtOH was added to each well to solubilise the stain. After 15 min shaking at 37° C. the OD690 nm of the wells was measured and subtracted from the OD540 nm. Results were then blanked against wells to which no cells had been added, and converted to a ratio of the OD of the negative control. Ratios […] indicated a cytostatic effect. Testing was performed on two separate occasions.

[1] = system: Clostridium difficile NCTC 43593; assay: Disk diffusion; assay type: cell-based; details: 10 mg/ml, 20 μl, BA - prereduced, anaerobe
Procedure: (§1) Plates were incubated at 35° C.

[2] = system: Shigella flexneri NCTC 8192; assay: Disk diffusion; assay type: cell-based; details: 10 mg/ml, 20 μl; repeat
Procedure: as §1

[3] = system: Moraxella catarrhalis NCTC 3625; assay: Disk diffusion; details: 10 mg/ml, 20 μl; repeat, strain NCTC 3625

O=C(O)c1ccc(/C=C/c2cc(/C=C/c3ccc(C(=O)O)cc3)cc(/C=C/c3ccc(C(=O)O)cc3)c2)cc1 [TSB007]
ratio of the well's OD compared to the OD of the negative control, Average (SD) (n = 2) (L929 cells; 0.5 μg/ml): 0.846 (0.285) | ratio of the well's OD compared to the OD of the negative control, Average (SD) (n = 2) (L929 cells; 5 μg/ml): 0.882 (0.021) | ratio of the well's OD compared to the OD of the negative control, Average (SD) (n = 2) (L929 cells; 50 μg/ml): 0.867 (0.030) | cytostatic effect on L929 cells (L929 cells; 500 μg/ml): cytostatic | ratio of the well's OD compared to the OD of the negative control, Average (SD) (n = 2) (L929 cells; 500 μg/ml): 0.384 (0.009) | cytostatic effect on L929 cells (L929 cells; 0.5-50 μg/ml): not significantly cytostatic | Zone diameters, 24 h TSB007 ([1]; 24 h): 10 trim | Zone diameters, 48 h TSB007 ([1]; 48 h): 10 trim | Zone diameters, Repeat Results [2]: 8.5 trim | Zone diameters, Repeat Results [3]: 36 trim
